Measurements published in PubChem BioAssay AID2060607 (Molecular Pharmacology Branch, DTP, NCI, 2025).

System: 876862-298-R-J1-PDC complex spheroids, viability % test/control
Experiment: Anticancer human tumor 876862-298-R-J1-PDC patient-derived endometrial carcinoma cell line growth inhibition [CLK]
Conditions: for IC50: curve of first compound; for viability, T/C: stronger effect = lower value; active = viability on the fitted dose curve at most 10% of control; inactive = the rest
In short: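 Multi-cell-type spheroids combined patient-derived tumor cells with HUVEC endothelial cells and human mesenchymal stem cells. Paired agents were dosed in half-log steps down from about clinical Cmax, or from 10 microM where Cmax was unknown.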

[1] = second compound 0.0316 µM, first compound 0.0316 µM
[2] = second compound 0.0316 µM, first compound 0.1 µM
[3] = second compound 0.0316 µM, first compound 0.316 µM
[4] = second compound 0.0316 µM, first compound 1 µM
[5] = second compound 0.0316 µM, first compound 3.16 µM
[6] = second compound 0.0316 µM, first compound 10 µM
[7] = second compound 0.1 µM, first compound 0.0316 µM
[8] = second compound 0.1 µM, first compound 0.1 µM
[9] = second compound 0.1 µM, first compound 0.316 µM
[10] = second compound 0.1 µM, first compound 1 µM
[11] = second compound 0.1 µM, first compound 3.16 µM
[12] = second compound 0.1 µM, first compound 10 µM
[13] = second compound 0.316 µM, first compound 0.0316 µM
[14] = second compound 0.316 µM, first compound 0.1 µM
[15] = second compound 0.316 µM, first compound 0.316 µM
[16] = second compound 0.316 µM, first compound 1 µM
[17] = second compound 0.316 µM, first compound 3.16 µM
[18] = second compound 0.316 µM, first compound 10 µM
[19] = second compound 1 µM, first compound 0.0316 µM
[20] = second compound 1 µM, first compound 0.1 µM
[21] = second compound 1 µM, first compound 0.316 µM
[22] = second compound 1 µM, first compound 1 µM
[23] = second compound 1 µM, first compound 3.16 µM
[24] = second compound 1 µM, first compound 10 µM
[25] = second compound 3.16 µM, first compound 0.0316 µM
[26] = second compound 3.16 µM, first compound 0.1 µM
[27] = second compound 3.16 µM, first compound 0.316 µM
[28] = second compound 3.16 µM, first compound 1 µM
[29] = second compound 3.16 µM, first compound 3.16 µM
[30] = second compound 3.16 µM, first compound 10 µM
[31] = second compound 10 µM, first compound 0.0316 µM
[32] = second compound 10 µM, first compound 0.1 µM
[33] = second compound 10 µM, first compound 0.316 µM
[34] = second compound 10 µM, first compound 1 µM
[35] = second compound 10 µM, first compound 3.16 µM
[36] = second compound 10 µM, first compound 10 µM
[37] = second compound 0.0316 µM, first compound 0.00316 µM
[38] = second compound 0.0316 µM, first compound 0.01 µM
[39] = second compound 0.1 µM, first compound 0.00316 µM
[40] = second compound 0.1 µM, first compound 0.01 µM
[41] = second compound 0.316 µM, first compound 0.00316 µM
[42] = second compound 0.316 µM, first compound 0.01 µM
[43] = second compound 1 µM, first compound 0.00316 µM
[44] = second compound 1 µM, first compound 0.01 µM
[45] = second compound 3.16 µM, first compound 0.00316 µM
[46] = second compound 3.16 µM, first compound 0.01 µM
[47] = second compound 10 µM, first compound 0.00316 µM
[48] = second compound 10 µM, first compound 0.01 µM
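Also: spheroids exposed to drugs for 7 days before readout.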
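For viability, T/C in this document: 100% = DMSO vehicle control wells.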

CC(CO)NC(=O)c1cc(-c2ccc(Cl)cc2)nn(-c2cnn(C)c2)c1=O (stereo not drawn) + CNC(=O)c1ccc(Nc2nc(OC3CCCC3)c3c(-c4ccc5nc(C)oc5c4)c[nH]c3n2)c(OC)c1
< 31.6 nM: IC50 (second compound 0.1 µM) | IC50 (second compound 0.316 µM) | IC50 (second compound 1 µM) | IC50 (second compound 3.16 µM) | IC50 (second compound 10 µM)
inactive: viability, T/C [1] 68.7% | viability, T/C [2] 81% | viability, T/C [3] 66.9% | viability, T/C [4] 67.7% | viability, T/C [5] 62.9% | viability, T/C [6] 55.7% | viability, T/C [7] 41% | viability, T/C [8] 53% | viability, T/C [9] 44.9% | viability, T/C [10] 48.5% | viability, T/C [11] 46.1% | viability, T/C [12] 42.7% | viability, T/C [13] 38.7% | viability, T/C [14] 43.8% | viability, T/C [15] 39.7% | viability, T/C [16] 37.9% | viability, T/C [17] 42.7% | viability, T/C [18] 42.1% | viability, T/C [19] 33.8% | viability, T/C [20] 32.6% | viability, T/C [21] 38.9% | viability, T/C [22] 33.3% | viability, T/C [23] 30% | viability, T/C [24] 31.3% | viability, T/C [25] 24% | viability, T/C [26] 25.1% | viability, T/C [27] 21.7% | viability, T/C [28] 25.5% | viability, T/C [29] 27.2% | viability, T/C [30] 22.4% | viability, T/C [31] 23.9% | viability, T/C [32] 21.2% | viability, T/C [33] 20.5% | viability, T/C [34] 23.8% | viability, T/C [35] 23.1% | viability, T/C [36] 20.9%
> 10000 nM: IC50 (second compound 0.0316 µM)

CC(Nc1ccc2c(c1)OCCn1cc(N3C(=O)OCC3C(F)F)nc1-2)C(N)=O (stereo not drawn) + CNC(=O)c1ccc(Nc2nc(OC3CCCC3)c3c(-c4ccc5nc(C)oc5c4)c[nH]c3n2)c(OC)c1
316 nM: IC50 (second compound 0.0316 µM)
< 31.6 nM: IC50 (second compound 0.1 µM) | IC50 (second compound 0.316 µM) | IC50 (second compound 1 µM) | IC50 (second compound 3.16 µM) | IC50 (second compound 10 µM)
inactive: viability, T/C [1] 56% | viability, T/C [2] 61.4% | viability, T/C [3] 46.6% | viability, T/C [4] 41% | viability, T/C [5] 31.8% | viability, T/C [6] 20.8% | viability, T/C [7] 40.6% | viability, T/C [8] 38.3% | viability, T/C [9] 32.5% | viability, T/C [10] 27% | viability, T/C [11] 20.9% | viability, T/C [12] 16% | viability, T/C [13] 41% | viability, T/C [14] 33.2% | viability, T/C [15] 29.7% | viability, T/C [16] 23.1% | viability, T/C [17] 20% | viability, T/C [18] 17.4% | viability, T/C [19] 31.6% | viability, T/C [20] 25.4% | viability, T/C [21] 22.1% | viability, T/C [22] 20% | viability, T/C [23] 17.1% | viability, T/C [24] 14% | viability, T/C [25] 20.1% | viability, T/C [26] 16.7% | viability, T/C [27] 15.1% | viability, T/C [28] 14.8% | viability, T/C [29] 14% | viability, T/C [30] 10.2% | viability, T/C [31] 16.7% | viability, T/C [32] 14.8% | viability, T/C [33] 12.6% | viability, T/C [34] 13% | viability, T/C [35] 12% | viability, T/C [36] 9.25%

CCN1CCN(Cc2ccc(Nc3ncc(F)c(-c4cc(F)c5nc(C)n(C(C)C)c5c4)n3)nc2)CC1 + CNC(=O)c1ccc(Nc2nc(OC3CCCC3)c3c(-c4ccc5nc(C)oc5c4)c[nH]c3n2)c(OC)c1
> 1000 nM: IC50 (second compound 0.0316 µM)
< 3.16 nM: IC50 (second compound 0.316 µM) | IC50 (second compound 1 µM) | IC50 (second compound 3.16 µM) | IC50 (second compound 10 µM)
inactive: viability, T/C [37] 76.6% | viability, T/C [38] 84.1% | viability, T/C [1] 69.4% | viability, T/C [2] 62.5% | viability, T/C [3] 59% | viability, T/C [4] 49% | viability, T/C [39] 46% | viability, T/C [40] 51.9% | viability, T/C [7] 57.1% | viability, T/C [8] 47.8% | viability, T/C [9] 47.8% | viability, T/C [10] 49.5% | viability, T/C [41] 47.2% | viability, T/C [42] 45.2% | viability, T/C [13] 49.6% | viability, T/C [14] 46.4% | viability, T/C [15] 45.1% | viability, T/C [16] 42.8% | viability, T/C [43] 34.7% | viability, T/C [44] 40.4% | viability, T/C [19] 41.1% | viability, T/C [20] 38.8% | viability, T/C [21] 31.8% | viability, T/C [22] 40.5% | viability, T/C [45] 28% | viability, T/C [46] 29.1% | viability, T/C [25] 27.1% | viability, T/C [26] 30% | viability, T/C [27] 30.1% | viability, T/C [28] 35.2% | viability, T/C [47] 25.2% | viability, T/C [48] 25.6% | viability, T/C [31] 22.7% | viability, T/C [32] 26.4% | viability, T/C [33] 30.1% | viability, T/C [34] 32.2%
60.7 nM: IC50 (second compound 0.1 µM)

COc1c(OCCCN2CCOCC2)ccc2c3n(c(=NC(=O)c4cnc(N)nc4)nc12)CCN3 + CNC(=O)c1ccc(Nc2nc(OC3CCCC3)c3c(-c4ccc5nc(C)oc5c4)c[nH]c3n2)c(OC)c1
active: viability, T/C [27] 9.04% | viability, T/C [28] 7.24% | viability, T/C [33] 6.96% | viability, T/C [34] 6.64%
< 3.16 nM: IC50 (second compound 0.1 µM) | IC50 (second compound 0.316 µM) | IC50 (second compound 1 µM) | IC50 (second compound 3.16 µM) | IC50 (second compound 10 µM)
inactive: viability, T/C [37] 63.1% | viability, T/C [38] 67.3% | viability, T/C [1] 43.5% | viability, T/C [2] 22.6% | viability, T/C [3] 15.8% | viability, T/C [4] 18% | viability, T/C [39] 45.5% | viability, T/C [40] 35.1% | viability, T/C [7] 25.3% | viability, T/C [8] 16.6% | viability, T/C [9] 16.6% | viability, T/C [10] 18.4% | viability, T/C [41] 37.4% | viability, T/C [42] 32.6% | viability, T/C [13] 22.6% | viability, T/C [14] 18.1% | viability, T/C [15] 13.4% | viability, T/C [16] 14.9% | viability, T/C [43] 29.2% | viability, T/C [44] 22.1% | viability, T/C [19] 18.4% | viability, T/C [20] 13.6% | viability, T/C [21] 12% | viability, T/C [22] 12.6% | viability, T/C [45] 22.1% | viability, T/C [46] 17% | viability, T/C [25] 12.5% | viability, T/C [26] 9.46% | viability, T/C [47] 17.3% | viability, T/C [48] 16.9% | viability, T/C [31] 13.3% | viability, T/C [32] 9.74%
22.8 nM: IC50 (second compound 0.0316 µM)
